In US20180256557A1, “PHARMACEUTICAL COMBINATION COMPRISING (A) THE ALPHA-ISOFORM SPECIFIC PI3K INHIBITOR ALPELISIB (BYL719) AND (B) AN AKT INHIBITOR, PREFERABLY MK-2206, AFURESERTIB OR UPROSERTIB, AND THE USE THEREOF IN THE TREATMENT/PREVENTION OF CANCER” (priority 2015, published 2018):

How the values were obtained:
Assay type in all cases: cell-based
[1] = system: 23 colorectal cancer cell lines; assay: Cell proliferation over the panel of cell lines; conditions: single agent; for IC50 values over the cell line panel: summary in words of FIG. 1 and Table 2
Protocol: (§1) COMPOUNDS A and B were dissolved in 100% DMSO (Sigma, Catalog number D2650) at concentrations of 20 mM and stored at −20° C. until use. Compounds were arrayed in drug master plates (Greiner, Catalog number 788876) and serially diluted 3-fold (7 steps) at 2000× concentration.
(§2) Colorectal cancer cell lines used for this study were obtained, cultured and processed from commercial vendors ATCC, CellBank Australia, DSMZ, ECACC, HSRRB, and RIKEN (Table 1). All cell line media were supplemented with 10% FBS (HyClone, Catalog number SH30071.03). Media for LIM2405 and LIM2551 was additionally supplemented with 0.6 μg/mL Insulin (SIGMA, Catalog number 19278), 1 μg/mL Hydrocortisone (SIGMA, Catalog number H0135), and 10 μM 1-Thioglycerol (SIGMA, Catalog number M6145).
(§3) Cell lines were cultured in 37° C. and 5% CO2 incubator and expanded in T-75 flasks. In all cases cells were thawed from frozen stocks, expanded through ≥1 passage using 1:3 dilutions, counted and assessed for viability using a ViCell counter (Beckman-Coulter) prior to plating. To split and expand cell lines, cells were dislodged from flasks using 0.25% Trypsin-EDTA (GIBCO, Catalog number 25200). All cell lines were determined to be free of mycoplasma contamination as determined by a PCR detection methodology performed at Idexx Radil (Columbia, Mo., USA) and correctly identified by detection of a panel of SNPs.
To test the effect of the combination of COMPOUND A and COMPOUND B on cell proliferation cells were plated in black 384-well microplates with clear bottom (Matrix/Thermo Scientific, Catalog number 4332) in 50 μL media per well at cell densities between 500 and 1250 cells/well (Table 1) and allowed to incubate at 37 degrees, 5% CO2 for 24 h. […] Caspase 3/7 induction was measured as a proxy for apoptosis induced by the treatments. Cells were treated for 72 h to 96 h depending on their doubling time (Table 1), and Caspase 3/7 activation was measured every 24 h by microscopy using an InCell Analyzer 2000 (GE Healthcare) equipped with a 4× objective and FITC excitation/emission filters. […]

[2] = system: CL-11 colorectal cancer cell line; assay: Cell proliferation, cell count by microscopy; conditions: single agent; CL-11 (KRAS); 96 h treatment
Protocol: as §1, §2, §3
(§4) To test the effect of the combination of COMPOUND A and COMPOUND B on cell proliferation cells were plated in black 384-well microplates with clear bottom (Matrix/Thermo Scientific, Catalog number 4332) in 50 μL media per well at cell densities between 500 and 1250 cells/well (Table 1) and allowed to incubate at 37 degrees, 5% CO2 for 24 h. After 24 h one 384-well plate per cell line was prepared for cell counting by microscopy (see below) without receiving treatment (=‘baseline’). The other cell plates were treated by transferring 25 nL of the 2000× compound from drug master plates using an ATS acoustic liquid dispenser (ECD Biosystems) and resulting in a final 1× concentration. COMPOUND A was used over a final concentration range of 13 nM-10 μM, and COMPOUND B was used over a final concentration range of 13 nM-10 μM (7 1:3 dilution steps). For the combination of COMPOUND A with COMPOUND B the single agents were combined at a fixed ratio of 1:1 at each dilution resulting in 7 combination treatments. […] After compound addition 50 nL of 2 mM CellEvent Caspase-3/7 Green Detection Reagent (ThermoFisher, Catalog number C10423) were added to one of the three replicates using the HP D300 Digital Dispenser (Tecan). Caspase 3/7 induction was measured as a proxy for apoptosis induced by the treatments. Cells were treated for 72 h to 96 h depending on their doubling time (Table 1), and Caspase 3/7 activation was measured every 24 h by microscopy using an InCell Analyzer 2000 (GE Healthcare) equipped with a 4× objective and FITC excitation/emission filters. At the end of the treatment cells were prepared for cell counting by microscopy. Cells were fixed and permeabilised for 45 minutes in 4% PFA (Electron Microscopy Sciences, Catalog number 15714), 0.12% TX-100 (Electron Microscopy Sciences, Catalog number 22140) in PBS (Boston Bioproducts, Catalog number BM-220). After washing cells three times with PBS their DNA was stained for 30 minutes with Hoechst 33342 (ThermoFisher, Catalog number H3570) at a final concentration of 4 μg/ml. Cells were washed three times with PBS and then plates were heat-sealed using a PlateLoc (Agilent Technologies) with aluminum seals (Agilent Technologies, Catalog number 06644-001) and stored at 4° C. until imaging. All cells per well/treatment were captured in a single image by fluorescence microscopy using an InCell Analyzer 2000 (GE Healthcare) equipped with a 4× objective and DAPI excitation/emission filters. […]

[3] = system: SW837 colorectal cancer cell line; assay: Cell proliferation, cell count by microscopy; conditions: Homo sapiens; single agent; SW837 (KRAS); 72 h treatment
Protocol: as §1, §2, §3, §4

[4] = system: SW48 colorectal cancer cell line; assay: Cell proliferation, cell count by microscopy; conditions: Homo sapiens; single agent; SW48 (MEK1); 96 h treatment
Protocol: as §1, §2, §3, §4

[5] = system: LIM2405 colorectal cancer cell line; assay: Cell proliferation, cell count by microscopy; conditions: single agent; LIM2405 (BRAF); 72 h treatment
Protocol: as §1, §2, §3, §4

[6] = system: GP2d colorectal cancer cell line; assay: Cell proliferation, cell count by microscopy; conditions: single agent; GP2d (KRAS, PIK3CA); 72 h treatment
Protocol: as §1, §2, §3, §4

[7] = system: NCI-H508 colorectal cancer cell line; assay: Cell proliferation, cell count by microscopy; conditions: Homo sapiens; single agent; NCI-H508 (PIK3CA); 72 h treatment
Protocol: as §1, §2, §3, §4

[8] = system: LS-180 colorectal cancer cell line; assay: Cell proliferation, cell count by microscopy; conditions: Homo sapiens, LS180; single agent; LS-180 (KRAS, PIK3CA); 72 h treatment
Protocol: as §1, §2, §3, §4

[9] = system: HCT-116 colorectal cancer cell line; assay: Cell proliferation, cell count by microscopy; conditions: Homo sapiens; single agent; HCT-116 (KRAS, PIK3CA); 72 h treatment
Protocol: as §1, §2, §3, §4

[10] = system: COLO-320 colorectal cancer cell line; assay: Cell proliferation, cell count by microscopy; conditions: Homo sapiens; single agent; COLO-320 (no driver mutation listed); 72 h treatment
Protocol: as §1, §2, §3, §4

[11] = system: HT55 colorectal cancer cell line; assay: Cell proliferation, cell count by microscopy; conditions: Homo sapiens; single agent; HT55 (no driver mutation listed); 96 h treatment
Protocol: as §1, §2, §3, §4

[12] = system: CW-2 colorectal cancer cell line; assay: Cell proliferation, cell count by microscopy; conditions: single agent; CW-2 (no driver mutation listed); 96 h treatment
Protocol: as §1, §2, §3, §4

[13] = system: LIM2551 colorectal cancer cell line; assay: Cell proliferation, cell count by microscopy; conditions: single agent; LIM2551 (BRAF, PIK3CA); 72 h treatment
Protocol: as §1, §2, §3, §4

[14] = system: SW620 colorectal cancer cell line; assay: Cell proliferation, cell count by microscopy; conditions: Homo sapiens, SW-620; single agent; SW620 (KRAS); 72 h treatment
Protocol: as §1, §2, §3, §4

[15] = system: DLD-1 colorectal cancer cell line; assay: Cell proliferation, cell count by microscopy; conditions: Homo sapiens; single agent; DLD-1 (KRAS, PIK3CA); 72 h treatment
Protocol: as §1, §2, §3, §4

[16] = system: COLO-678 colorectal cancer cell line; assay: Cell proliferation, cell count by microscopy; conditions: Homo sapiens; single agent; COLO-678 (KRAS); 96 h treatment
Protocol: as §1, §2, §3, §4

[17] = system: LoVo colorectal cancer cell line; assay: Cell proliferation, cell count by microscopy; conditions: Homo sapiens; single agent; LoVo (KRAS); 96 h treatment
Protocol: as §1, §2, §3, §4

[18] = system: OUMS-23 colorectal cancer cell line; assay: Cell proliferation, cell count by microscopy; conditions: single agent; OUMS-23 (BRAF); 72 h treatment
Protocol: as §1, §2, §3, §4

[19] = system: SW480 colorectal cancer cell line; assay: Cell proliferation, cell count by microscopy; conditions: Homo sapiens; single agent; SW480 (KRAS); 72 h treatment
Protocol: as §1, §2, §3, §4

[20] = system: SNU-C2A colorectal cancer cell line; assay: Cell proliferation, cell count by microscopy; conditions: single agent; SNU-C2A (KRAS); 96 h treatment
Protocol: as §1, §2, §3, §4

[21] = system: RKO colorectal cancer cell line; assay: Cell proliferation, cell count by microscopy; conditions: single agent; RKO (BRAF, PIK3CA); 72 h treatment
Protocol: as §1, §2, §3, §4

[22] = system: LS411N colorectal cancer cell line; assay: Cell proliferation, cell count by microscopy; conditions: Homo sapiens, LS-411N; single agent; LS411N (BRAF); 72 h treatment
Protocol: as §1, §2, §3, §4

[23] = system: COLO-205 colorectal cancer cell line; assay: Cell proliferation, cell count by microscopy; conditions: Homo sapiens; single agent; COLO-205 (BRAF); 72 h treatment
Protocol: as §1, §2, §3, §4

[24] = system: HT-29 colorectal cancer cell line; assay: Cell proliferation, cell count by microscopy; conditions: Homo sapiens; single agent; HT-29 (BRAF, PIK3CA); 72 h treatment
Protocol: as §1, §2, §3, §4

## Cc1nc(NC(=O)N2CCC[C@H]2C(N)=O)sc1-c1ccnc(C(C)(C)C(F)(F)F)c1 [COMPOUND A, (S)-Pyrrolidine-1,2-dicarboxylic acid 2-amide 1-({4-methyl-5-[2-(2,2,2-trifluoro-1,1-dimethyl-ethyl)-pyridin-4-yl]-thiazol-2-yl}-amide)]
[1]; one-tailed t-test on normalized cell counts (FIG. 3)
  growth inhibition of PIK3CA mutant cell lines compared to PIK3CA wild type cell lines: significantly stronger
[1]
  IC50 values over the cell line panel: micromolar
[2]
  IC50: 3.2 µM
[3]
  IC50: 9.3 µM
[4]
  IC50: 3.2 µM
[5]
  IC50: > 10 µM
[6]
  IC50: 0.3 µM
[7]
  IC50: 1.3 µM
[8]
  IC50: 7.1 µM
[9]
  IC50: 6.9 µM
[10]
  IC50: 7.3 µM
[11]
  IC50: 1.1 µM
[12]
  IC50: > 10 µM
[13]
  IC50: 1.4 µM
[14]
  IC50: > 10 µM
[15]
  IC50: > 10 µM
[16]
  IC50: > 10 µM
[17]
  IC50: 7.5 µM
[18]
  IC50: > 10 µM
[19]
  IC50: > 10 µM
[20]
  IC50: > 10 µM
[21]
  IC50: 2.6 µM
[22]
  IC50: > 10 µM
[23]
  IC50: > 10 µM
[24]
  IC50: 1.9 µM

## NC1(c2ccc(-c3nc4ccn5c(=O)[nH]nc5c4cc3-c3ccccc3)cc2)CCC1 [COMPOUND B, 8-[4-(1-Aminocyclobutyl)phenyl]-9-phenyl-1,2,4-triazolo[3,4-f][1,6]naphthyridin-3(2H)-one, reference compound]
[1]
  IC50 values over the cell line panel: micromolar
[2]
  IC50: > 10 µM
[3]
  IC50: > 10 µM
[4]
  IC50: > 10 µM
[5]
  IC50: > 10 µM
[6]
  IC50: 0.6 µM
[7]
  IC50: 1.5 µM
[8]
  IC50: > 10 µM
[9]
  IC50: > 10 µM
[10]
  IC50: 5.1 µM
[11]
  IC50: 1 µM
[12]
  IC50: 6.4 µM
[13]
  IC50: 1.4 µM
[14]
  IC50: > 10 µM
[15]
  IC50: > 10 µM
[16]
  IC50: > 10 µM
[17]
  IC50: 0.1 µM
[18]
  IC50: > 10 µM
[19]
  IC50: > 10 µM
[20]
  IC50: > 10 µM
[21]
  IC50: 3.9 µM
[22]
  IC50: 3 µM
[23]
  IC50: 5.4 µM
[24]
  IC50: 3.8 µM
